Measured values as given in US12084472B2 (Ardelyx, Inc., priority 2015, dated 2024).
Structures can show the parent of a compound that is named as a salt.

target: T1, human TGR5 (Homo sapiens, UniProt Q8TDU6); assay: Cell-based TGR5 assay (cAMP generation, HTRF); details: HEK293 cells stably transfected with human TGR5; cAMP by HTRF; 30 minutes at 37° C.; read-out: pEC50 Human TGR5 (converted)
T1 construct: expressed in transfected cells; host or cells: HEK293
T1 sequence (Q8TDU6 1-330): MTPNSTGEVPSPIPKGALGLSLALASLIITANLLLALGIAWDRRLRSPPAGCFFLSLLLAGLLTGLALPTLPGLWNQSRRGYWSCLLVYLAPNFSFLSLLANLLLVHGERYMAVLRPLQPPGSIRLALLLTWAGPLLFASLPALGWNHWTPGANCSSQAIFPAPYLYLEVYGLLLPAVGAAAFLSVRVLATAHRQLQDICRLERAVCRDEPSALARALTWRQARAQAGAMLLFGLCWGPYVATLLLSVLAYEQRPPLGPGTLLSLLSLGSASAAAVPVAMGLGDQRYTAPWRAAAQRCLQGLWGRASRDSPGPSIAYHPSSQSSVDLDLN
Outline: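 Read-out was HTRF detection of cAMP, converted to concentration via a standard curve and fitted (3-parameter logistic) for pEC50 and maximal response. Agonist stimulation used HEK293 cells stably transfected with human TGR5, incubated 30 min at 37° C in IBMX-containing buffer at 0.05 nM to 10 μM compound.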

Row | EC50 [nM] | SMILES
1 | 126 to 1000 | COCCCN(C[C@H](O)[C@@H](O)[C@H](O)[C@H](O)CO)C(=O)CCCCc1cc(Cl)c(COC2(c3cnccc3-c3ccccc3OC3CC3)CC2)cc1Cl [Compound I-220, 5-[2,5-dichloro-4-({1-[4-(2-cyclopropoxyphenyl)pyridin-3-yl]cyclopropoxy}methyl)phenyl]-N-(3-methoxypropyl)-N-[(2S,3R,4R,5R)-2,3,4,5,6-pentahydroxyhexyl]pentanamide]
2 | < 100 | CN(C)C(=O)CN(C[C@H](O)[C@@H](O)[C@H](O)[C@H](O)CO)C(=O)CCCCc1cc(Cl)c(COC2(c3cnccc3-c3ccccc3OC3CC3)CC2)cc1Cl [Compound I-221, 5-[2,5-dichloro-4-({1-[4-(2-cyclopropoxyphenyl)pyridin-3-yl]cyclopropoxy}methyl)phenyl]-N-[(dimethylcarbamoyl)methyl]-N-[(2S,3R,4R,5R)-2,3,4,5,6-pentahydroxyhexyl]pentanamide]
3 | < 100 | CN(C)C(=O)CCN(C[C@H](O)[C@@H](O)[C@H](O)[C@H](O)CO)C(=O)CCCCc1cc(Cl)c(COC2(c3cnccc3-c3ccccc3OC3CC3)CC2)cc1Cl [Compound I-222, 5-[2,5-dichloro-4-({1-[4-(2-cyclopropoxyphenyl)pyridin-3-yl]cyclopropoxy}methyl)phenyl]-N-[2-(dimethylcarbamoyl)ethyl]-N-[(2S,3R,4R,5R)-2,3,4,5,6-pentahydroxyhexyl]pentanamide]
4 | < 100 | NC(=O)CCN(C[C@H](O)[C@@H](O)[C@H](O)[C@H](O)CO)C(=O)CCCCc1cc(Cl)c(COC2(c3cnccc3-c3ccccc3OC3CC3)CC2)cc1Cl [Compound I-223, N-(2-carbamoylethyl)-5-[2,5-dichloro-4-({1-[4-(2-cyclopropoxyphenyl)pyridin-3-yl]cyclopropoxy}methyl)phenyl]-N-[(2S,3R,4R,5R)-2,3,4,5,6-pentahydroxyhexyl]pentanamide]
5 | < 100 | Cc1cc(COC2(c3cnccc3-c3ccccc3OC3CC3)CC2)c(C)cc1CCCCC(=O)NC[C@H](O)[C@@H](O)[C@H](O)[C@H](O)CO [Compound I-229, 5-[4-({1-[4-(2-cyclopropoxyphenyl)pyridin-3-yl]cyclopropoxy}methyl)-2,5-dimethylphenyl]-N-[(2S,3R,4R,5R)-2,3,4,5,6-pentahydroxyhexyl]pentanamide]
6 | < 100 | Cc1cc(COC2(c3cnccc3-c3ccccc3OC3CC3)CC2)c(C)cc1CCCCC(=O)N(C)C[C@H](O)[C@@H](O)[C@H](O)[C@H](O)CO [Compound I-230, 5-[4-({1-[4-(2-cyclopropoxyphenyl)pyridin-3-yl]cyclopropoxy}methyl)-2,5-dimethylphenyl]-N-methyl-N-[(2S,3R,4R,5R)-2,3,4,5,6-pentahydroxyhexyl]pentanamide]
7 | 126 to 1000 | Cc1ccc(CCCCNC(=O)NC[C@H](O)[C@@H](O)[C@H](O)[C@H](O)CO)cc1COC1(c2cnccc2-c2ccccc2OC2CC2)CC1 [Compound I-239, 1-{4-[3-({1-[4-(2-cyclopropoxyphenyl)pyridin-3-yl]cyclopropoxy}methyl)-4-methylphenyl]butyl}-3-[(2S,3R,4R,5R)-2,3,4,5,6-pentahydroxyhexyl]urea]
8 | < 100 | Cc1ccc(CCCCNC(=O)NC[C@H](O)[C@@H](O)[C@H](O)[C@H](O)CO)cc1CNC1(c2cnccc2-c2ccccc2OC2CC2)CC1 [Compound I-240, 1-(4-{3-[({1-[4-(2-cyclopropoxyphenyl)pyridin-3-yl]cyclopropyl}amino)methyl]-4-methylphenyl}butyl)-3-[(2S,3R,4R,5R)-2,3,4,5,6-pentahydroxyhexyl]urea]
9 | < 100 | CC(CCCCN)c1ccc(Cl)c(CNC2(c3cnccc3-c3ccccc3OC3CC3)CC2)c1 (centres unmarked) [Compound I-242, N-[[5-(6-aminohexan-2-yl)-2-chlorophenyl]methyl]-1-[4-(2-cyclopropoxyphenyl)pyridin-3-yl]cyclopropan-1-amine]
10 | < 100 | CC(CCCCC(=O)O)c1ccc(Cl)c(CNC2(c3cnccc3-c3ccccc3OC3CC3)CC2)c1 (centres unmarked) [Compound I-249, 6-{4-chloro-3-[({1-[4-(2-cyclopropoxyphenyl)pyridin-3-yl]cyclopropyl}amino)methyl]phenyl}heptanoic acid]
11 | 126 to 1000 | CC(CCCN)c1ccc(Cl)c(CNC2(c3cnccc3-c3ccccc3OC3CC3)CC2)c1 (centres unmarked) [Compound I-252, N-{[5-(5-aminopentan-2-yl)-2-chlorophenyl]methyl}-1-[4-(2-cyclopropoxyphenyl)pyridin-3-yl]cyclopropan-1-amine]
12 | < 100 | Cc1ccc(C(C)CCCC(=O)NC[C@H](O)[C@@H](O)[C@H](O)[C@H](O)CO)cc1CNC1(c2cnccc2-c2ccccc2OC2CC2)CC1 (stereo partly drawn) [Compound I-257, 5-[3-[([1-[4-(2-cyclopropoxyphenyl)pyridin-3-yl]cyclopropyl]amino)methyl]-4-methylphenyl]-N-[(2S,3R,4R,5R)-2,3,4,5,6-pentahydroxyhexyl]hexanamide dihydrochloride]
13 | < 100 | CC(CCCN(C)C(=O)[C@@H](O)[C@@H](O)[C@H](O)[C@@H](O)CO)c1ccc(Cl)c(CNC2(c3cnccc3-c3ccccc3OC3CC3)CC2)c1 (stereo partly drawn) [Compound I-258, (2S,3S,4R,5S)-N-(4-[4-chloro-3-[([1-[4-(2-cyclopropoxyphenyl)pyridin-3-yl]cyclopropyl]amino)methyl]phenyl]pentyl)-2,3,4,5,6-pentahydroxy-N-methylhexanamide]
14 | < 100 | Cc1ccc(C(C)CCCC(=O)N(Cc2ccccc2)C[C@H](O)[C@@H](O)[C@H](O)[C@H](O)CO)cc1CNC1(c2cnccc2-c2ccccc2OC2CC2)CC1 (stereo partly drawn) [Compound I-259, N-benzyl-5-(3-(((1-(4-(2-cyclopropoxyphenyl)pyridin-3-yl)cyclopropyl)amino)methyl)-4-methylphenyl)-N-((2S,3R,4R,5R)-2,3,4,5,6-pentahydroxyhexyl) hexanamide]
15 | < 100 | CC(CCCC(=O)NC[C@H](O)[C@@H](O)[C@H](O)[C@H](O)CO)c1cc(Cl)c(CNC2(c3cnccc3-c3ccccc3OC3CC3)CC2)cc1Cl (stereo partly drawn) [Compound I-260, 5-[2,5-dichloro-4-[([1-[4-(2-cyclopropoxyphenyl)pyridin-3-yl]cyclopropyl]amino)methyl]phenyl]-N-[(2S,3R,4R,5R)-2,3,4,5,6-pentahydroxyhexyl]hexanamide]
16 | < 100 | CC(CCCC(=O)N(CCCCCO)C[C@H](O)[C@@H](O)[C@H](O)[C@H](O)CO)c1ccc(Cl)c(CNC2(c3cnccc3-c3ccccc3OC3CC3)CC2)c1 (stereo partly drawn) [Compound I-261, 5-(4-chloro-3-(((1-(4-(2-cyclopropoxyphenyl)pyridin-3-yl)cyclopropyl)amino)methyl)phenyl)-N-(5-hydroxypentyl)-N-((2S,3R,4R,5R)-2,3,4,5,6-pentahydroxyhexyl) hexanamide]
17 | < 100 | CC(CCCC(=O)N(CCS(=O)(=O)N1CCOCC1)C[C@H](O)[C@@H](O)[C@H](O)[C@H](O)CO)c1ccc(Cl)c(CNC2(c3cnccc3-c3ccccc3OC3CC3)CC2)c1 (stereo partly drawn) [Compound I-262, 5-(4-chloro-3-(((1-(4-(2-cyclopropoxyphenyl)pyridin-3-yl)cyclopropyl)amino)methyl)phenyl)-N-(2-(morpholinosulfonyl)ethyl)-N-((2S,3R,4R,5R)-2,3,4,5,6-pentahydroxyhexyl)hexanamide]
18 | < 100 | C[C@@H](CCCCNC(=O)N[C@@H](CO)[C@@H](O)[C@H](O)[C@H](O)CO)c1ccc(Cl)c(COC2(c3cnccc3-c3ccccc3OC3CC3)CC2)c1 [Compound I-263]
19 | < 100 | CC(CCCNC(=O)NC[C@H](O)[C@@H](O)[C@H](O)[C@H](O)CO)c1ccc(Cl)c(CNC2(c3cnccc3-c3ccccc3OC3CC3)CC2)c1 (stereo partly drawn) [Compound I-265, 1-(4-{4-chloro-3-[({1-[4-(2-cyclopropoxyphenyl)pyridin-3-yl]cyclopropyl}amino)methyl]phenyl}pentyl)-3-[(2S,3R,4R,5R)-2,3,4,5,6-pentahydroxyhexyl]urea]
20 | < 100 | CC(CCCCNC(=O)N[C@@H](CO)[C@@H](O)[C@H](O)[C@H](O)CO)c1ccc(Cl)c(CNC2(c3cnccc3-c3ccccc3OC3CC3)CC2)c1 (stereo partly drawn) [Compound I-266, 1-(5-{4-chloro-3-[({1-[4-(2-cyclopropoxyphenyl)pyridin-3-yl]cyclopropyl}amino)methyl]phenyl}hexyl)-3-[(2S,3R,4S,5R)-1,3,4,5,6-pentahydroxyhexan-2-yl]urea]
21 | < 100 | CC(CCCCNC(=O)NC[C@H](O)[C@@H](O)[C@H](O)[C@H](O)CO)c1ccc(Cl)c(CNC2(c3cnccc3-c3ccccc3OC3CC3)CC2)c1 (stereo partly drawn) [Compound I-267, 1-(5-{4-chloro-3-[({1-[4-(2-cyclopropoxyphenyl)pyridin-3-yl]cyclopropyl}amino)methyl]phenyl}hexyl)-3-[(2S,3R,4R,5R)-2,3,4,5,6-pentahydroxyhexyl]urea]
22 | < 100 | CC(CCCCCNC(=O)NC[C@H](O)[C@@H](O)[C@H](O)[C@H](O)CO)c1ccc(Cl)c(CNC2(c3cnccc3-c3ccccc3OC3CC3)CC2)c1 (stereo partly drawn) [Compound I-268, 1-(6-{4-chloro-3-[({1-[4-(2-cyclopropoxyphenyl)pyridin-3-yl]cyclopropyl}amino)methyl]phenyl}heptyl)-3-[(2S,3R,4R,5R)-2,3,4,5,6-pentahydroxyhexyl]urea]
23 | < 100 | CC(CCCCN(C)C(=O)NC[C@H](O)[C@@H](O)[C@H](O)[C@H](O)CO)c1ccc(Cl)c(CNC2(c3cnccc3-c3ccccc3OC3CC3)CC2)c1 (stereo partly drawn) [Compound I-269, 1-(5-{4-chloro-3-[({1-[4-(2-cyclopropoxyphenyl)pyridin-3-yl]cyclopropyl}amino)methyl]phenyl}hexyl)-1-methyl-3-[(2S,3R,4R,5R)-2,3,4,5,6-pentahydroxyhexyl]urea]
